Laboratory results from EPA's CvTdb concentration-time database.

What was measured:
[1] = test system: Mouse; assay: concentration in plasma after dosing; details: 3 h; dosed: 2-Hydroxy-4-methoxybenzophenone; 250 mg/kg; oral; Male; B6C3F1
[2] = test system: Mouse; assay: concentration in plasma after dosing; details: 3 h; dosed: 2-Hydroxy-4-methoxybenzophenone; 50 mg/kg; iv; Male; B6C3F1
[3] = test system: Mouse; assay: concentration in plasma after dosing; details: 2 h; dosed: 2-Hydroxy-4-methoxybenzophenone; 50 mg/kg; iv; Male; B6C3F1
[4] = test system: Rat; assay: concentration in plasma after dosing; details: 10 min; dosed: Nitrite; 80 mg/kg; oral; Female; F344
[5] = test system: Rat; assay: concentration in plasma after dosing; details: 5 min; dosed: Nitrite; 80 mg/kg; oral; Female; F344
[6] = test system: Rat; assay: concentration in plasma after dosing; details: 0.5 h; dosed: Nitrite; 80 mg/kg; oral; Female; F344
[7] = test system: Rat; assay: concentration in plasma after dosing; details: dosed: Nitrite, 80 mg/kg, oral, Female, F344
[8] = test system: Rat; assay: concentration in liver after dosing; details: 6 h; dosed: Perfluorooctanoic acid; 80 mg/kg; oral; Female; Harlan Sprague Dawley
[9] = test system: Rat; assay: concentration in kidney after dosing; details: 3 h; dosed: Perfluorooctanoic acid; 80 mg/kg; oral; Female; Harlan Sprague Dawley
[10] = test system: Rat; assay: concentration in liver after dosing; details: 1200 h; dosed: Perfluorooctanoic acid; 12 mg/kg; oral; Male; Harlan Sprague Dawley
[11] = test system: Rat; assay: concentration in liver after dosing; details: 12 h; dosed: Fluorotelomer alcohol 8+2; 80 mg/kg; oral; Female; Harlan Sprague Dawley
[12] = test system: Rat; assay: concentration in kidney after dosing; details: 6 h; dosed: Perfluorooctanoic acid; 80 mg/kg; oral; Female; Harlan Sprague Dawley
[13] = test system: Rat; assay: concentration in liver after dosing; details: 192 h; dosed: Perfluorooctanoic acid; 12 mg/kg; oral; Male; Harlan Sprague Dawley
[14] = test system: Rat; assay: concentration in plasma after dosing; details: dosed: 678-39-7, 12 mg/kg, iv, Male, F344
[15] = test system: Rat; assay: concentration in brain after dosing; details: 12 h; dosed: Perfluorooctanoic acid; 80 mg/kg; oral; Female; Harlan Sprague Dawley
[16] = test system: Rat; assay: concentration in liver after dosing; details: 12 h; dosed: Fluorotelomer alcohol 8+2; 80 mg/kg; oral; Female; Harlan Sprague Dawley; remark: listed apart in the source
[17] = test system: Rat; assay: concentration in liver after dosing; details: 3 h; dosed: Fluorotelomer alcohol 8+2; 80 mg/kg; oral; Female; Harlan Sprague Dawley
[18] = test system: Rat; assay: concentration in liver after dosing; details: 24 h; dosed: Perfluorooctanoic acid; 80 mg/kg; oral; Female; Harlan Sprague Dawley
[19] = test system: Rat; assay: concentration in kidney after dosing; details: 1 h; dosed: Potassium Perfluorobutane Sulfonate; 20 mg/kg; oral; Male; Harlan Sprague Dawley
[20] = test system: Rat; assay: concentration in brain after dosing; details: 1 h; dosed: Potassium Perfluorobutane Sulfonate; 20 mg/kg; oral; Male; Harlan Sprague Dawley
[21] = test system: Rat; assay: concentration in plasma after dosing; details: dosed: Potassium Perfluorobutane Sulfonate, 20 mg/kg, oral, Male, Harlan Sprague Dawley
[22] = test system: Rat; assay: concentration in liver after dosing; details: 6 h; dosed: Potassium Perfluorobutane Sulfonate; 20 mg/kg; oral; Male; Harlan Sprague Dawley
[23] = test system: Rat; assay: concentration in plasma after dosing; details: dosed: Potassium Perfluorobutane Sulfonate, 4 mg/kg, iv, Male, F344
[24] = test system: Rat; assay: concentration in plasma after dosing; details: 1.5 h; dosed: Potassium Perfluorobutane Sulfonate; 4 mg/kg; iv; Male; F344
[25] = test system: Rat; assay: concentration in plasma after dosing; details: dosed: Potassium Perfluorobutane Sulfonate, 4 mg/kg, iv, Male, F344; remark: listed apart in the source
[26] = test system: rat; assay: concentration in lung after dosing (ugEq/g tissue); details: dosed: benzo[a]pyrene, iv, male, Wistar
[27] = test system: rat; assay: concentration in blood after dosing; negative times count back from the end of exposure; details: dosed: methanol, inhalation, duration: 6 hr, male

COc1ccc(C(=O)c2ccccc2)c(O)c1 [2-Hydroxy-4-methoxybenzophenone]
Details | concentration in plasma [µg/mL]
[1] | 0.0451
[2] | 0.175
[3] | 0.267

O=N[O-] [Nitrite]
Details | concentration in plasma [µg/mL]
[4] | 22.9
[5] | 9.6
[6] | 8.9

[7]
Details | concentration in plasma [µg/mL]
6 h | 1.7
10 min | 10.8

O=C(O)C(F)(F)C(F)(F)C(F)(F)C(F)(F)C(F)(F)C(F)(F)C(F)(F)F [Perfluorooctanoic acid]
Details | concentration in brain [ng/g] | concentration in kidney [ng/g] | concentration in liver [ng/g]
[8] | – | – | 130000
[9] | – | 321000 | –
[10] | – | – | 7530
[11] | – | – | 498
[12] | – | 178000 | –
[13] | – | – | 46900
[15] | 1280 | – | –
[16] | – | – | 487
[17] | – | – | 2300
[18] | – | – | 10000

[14]
Details | concentration in plasma [ng/mL]
1 h | 378
6 h | 480

O=S(=O)([O-])C(F)(F)C(F)(F)C(F)(F)C(F)(F)F.[K+] [Potassium Perfluorobutane Sulfonate]
Details | concentration in brain [ng/g] | concentration in kidney [ng/g] | concentration in liver [ng/g] | concentration in plasma [ng/mL]
[19] | – | 28600 | – | –
[20] | 1030 | – | – | –
[22] | – | – | 51600 | –
[24] | – | – | – | 2130

Details | concentration in plasma [ng/mL]
[21], 0.25 h | 30200
[21], 24 h | 1070
[23], 0.25 h | 27200
[23], 6 h | 4170
[25], 3 h | 10200
[25], 5 min | 29400

c1ccc2c(c1)cc1ccc3cccc4ccc2c1c34 [benzo[a]pyrene]
concentration in lung, [26]
Details | 2 mg/kg | 6 mg/kg | 15 mg/kg
0.5 h | 1.06 | 16 | 25.8
0.75 h | 2.68 | 5.85 | 13.7
1 h | 2.4 | 2.76 | 17
1.5 h | 1.07 | 5.3 | 38.5
2 h | 14.7 | 5.84 | 37
3 h | 0.34 | 0.4 | 7.07
4 h | 0.04 | 2.64 | 22.4
5 h | 0.68 | 12.4 | 33.2
5 min | 5.17 | 33.9 | 46
6 h | 0.06 | 6.27 | 22.6
8 h | 9.32 | 5.09 | 18.4
10 min | 1.31 | 13.6 | 26.1
20 min | 2.8 | 17.3 | 23.4
24 h | – | – | 10.2
32 h | – | 3.9 | 15.7

CO [methanol]
[27]
Details | concentration in blood [µg/mL]
-206 s, 2000 ppm, Fischer-344, during exposure | 80.6
-5.613 h, 2000 ppm, Fischer-344, during exposure | 18.9
-5.151 h, 2000 ppm, Fischer-344, during exposure | 24.3
-3.08 h, 2000 ppm, Fischer-344, during exposure | 59.9
0.4288 h, 200 ppm, CDF(F344)/CrlBR | 2.41
0.9278 h, 200 ppm, CDF(F344)/CrlBR | 2.01
1.006 h, 2000 ppm, Fischer-344 | 83.8
1.926 h, 200 ppm, CDF(F344)/CrlBR | 1.4
2.976 h, 2000 ppm, Fischer-344 | 53.3
2.996 h, 200 ppm, CDF(F344)/CrlBR | 1.2
4.511 h, 200 ppm, CDF(F344)/CrlBR | 1.51
5.974 h, 2000 ppm, Fischer-344 | 16.7
8.995 h, 2000 ppm, Fischer-344 | 0.702
11.92 h, 2000 ppm, Fischer-344 | 0.702

[27], 200 ppm, CDF(F344)/CrlBR, during exposure
Details | concentration in blood [µg/mL]
-5.615 h | 1.4
-5.115 h | 4.52
-3.047 h | 3.11
-0.07 h | 3.51
